Results as given in US20140220694A1, “METHODS AND COMPOSITIONS RELATING TO PLATELET SENSITIVITY” (ELECTROPHORETICS LIMITED, priority 2011, published 2014).

Assays:
Type in all cases: in vivo, human
Integrin beta 3 = Integrin beta 3 isotyping SRM assay, post:pre aspirin ratio
Protocol: 50 ml of whole blood was drawn from subjects into trisodium citrate (final concentration 0.32%) from the antecubital vein using a Butterfly® 19-guage siliconised needle. Blood was centrifuged (20 min, 200×g, room temperature (RT)) to obtain platelet rich plasma (PRP) that was acidified with the addition of 0.3M citric acid (target pH 6.5). Further centrifugation (15 min, 1200×g, RT) produced the platelet pellet that was immediately re-suspended in citrate wash buffer (refer to Appendix 1 for composition) and prostaglandin E1 (Sigma) was added to a final concentration of 10 nM. Removal of residual red cells and monocytes was performed by further centrifugation (3 min, 200×g, RT) and decanting of the platelet rich supernatant. Final centrifugation (15 min, 1200×g, RT) produced the washed platelet pellet that was stored at −80° C. The washed platelet pellet was re-suspended in lysis buffer (NaCl 150 mM, Tris-base 32 mM, NaF 50 mM, Na orthovanadate 1 mM to which 1 ml ethylenediaminetetraacetic acid (EDTA; 0.1M stock solution) and 1 ml Triton-X 100 was added prior to adjusting to pH 7.6 with conc. HCL and volume made up to 100 ml) containing protease inhibitor cocktail (Sigma Aldrich, UK) and placed on ice for 30 min, before agitation on ice for a further 5 min. The sample was centrifuged (5 min, 9000×g, 4° C.) to remove cellular debris. The supernatant was stored at −80° C. Aspirin sensitivity was assessed in individuals prescribed aspirin for secondary prevention using a combination of functional and biochemical assays. […] The amount of endogenous (light) peptide is calculated based on the peak area ratio relative to the 100 fmol spiked heavy peptide. For individuals where samples were available pre and post treatment with Aspirin, a post to pre ratio was calculated to assess any changes in peptide levels. […] For the healthy normal cohort, pre and post aspirin samples were not available and the basal pg measured peptides level per μg total protein were reported.

[1] = test system: ITGB3 (Glycoprotein IIIa); test: Western blotting of platelet lysates with N- and C-terminal specific antibodies; details: irrespective of platelet responsiveness status
Protocol: Platelet lysates from subjects (10 μg each) were mixed with equal volumes of Laemmli sample buffer (2×) (125 mM Tris-base, 4% SDS, 20% glycerol, 4% β-mercaptoethanol, 0.04% bromophenol blue), and subsequently loaded onto a 12.5% SDS-PAGE gel. Proteins were transferred onto PVDF membranes, and detected using specific antibodies as follows. Paired blots were incubated with Anti-GP111a C-terminal specific (Santa Cruz Biotechnology, Item code sc-6626, C-20) or anti GP111a N-terminal specific (Santa Cruz Biotechnology, Item code sc-6627, N-20) respectively. Bands were scanned and densitometric analysis performed using Image J system (a Java based image processing program developed by the National Institutes of Health, Bethesda, USA).

integrin beta 3 (ITGB3) = test: SRM analysis of TMT-labelled platelet peptides, post:pre aspirin ratios
Protocol: Peptides identified in the discovery study from candidate proteins were taken forward if they were proteotypic and had characteristics suitable for robust SRM quantitation i.e. fully hydrolysed, contained no known modifications (either in vivo or experimental) and had suitable MS/MS fragments for Q3 selection. Up to six peptides per protein were selected for targeted quantitation (Table 2). The m/z of Q1 and Q3 transitions for selected peptides were calculated either from data-dependent sequencing in the discovery study or from in silico analysis using Pinpoint (ThermoFisher). The theoretical optimal collision energies for each transitions were also calculated using the discovery data and Pinpoint (ThermoFisher). Peptide dection and quantitation was based on time-alignment of multiple transitions per peptide (up to six transitions per peptide). Only peptides with consistant detection of multiple time-aligned transitions in all subject samples were used in the final quantitation. The final SRM method was then applied to the quantitative analysis of the experimental sample set. TMT-labeled subject samples (70/90 μg, check) were reduced, alkylated, digested in-solution and purified by RP and SCX chromatography. […] The SRM peak area for each pre-aspirin sample was measured relative to the SRM peak area for each post-aspirin sample. […]

platelets = test: TMTsixplex GeLC-MS/MS discovery proteomics of platelet extracts pre and post aspirin treatment; details: for peptide/protein expression after aspirin treatment: 300 mg daily, 1 month oral
Protocol: To address the shortage of sensitive, robust and reliable markers of aspirin resistance the inventors undertook a comparative proteomic study of platelet extracts derived from samples known to be resistant and sensitive following 1 month's oral administration of therapeutic doses of aspirin (300 mg daily).
Briefly, platelets were purified from blood drawn from individuals with functionally documented aspirin resistance (n=2) or sensitivity (n=4). In each case matched samples were drawn pre- and post-aspirin treatment. Proteins were extracted, reduced and alkylated prior to labelling with a sixplex set of isobaric mass tags (TMTsixplex, Proteome Sciences plc; Refer to FIG. 1b). After labelling sets of six samples were pooled according to a randomised schedule and subjected to 1-dimensional SDS-PAGE. Each gel lane was cut into […] and each band subjected to in gel digestion using trypsin prior to analysis by LC-MS/MS to allow protein identification. Relative quantitation of each protein was achieved by comparing the ion intensity and area under the curve for each of the six TMT Reporter Ions and proteins showing a difference in levels between aspirin resistant and sensitive platelets were thus identified.
From 94 healthy subjects, 2 subjects were determined as aspirin resistance using measurements of platelet aggregommetry (agonist's arachidonic acid and ADP) and 11-dehydroTXB2 in urine. To be defined as truly aspirin resistant subjects must have an abnormal response with both measures. Subjects took 300 mg aspirin daily for 1 month.
Preparation of Platelet Samples 60 ml whole blood was obtained from subjects from the antecubital vein using a Butterfly®19-gauge needle, and collected into NaCl trisodium citrate (final concentration 0.38%). […]
Prior to analysis by GeLC-MS/MS 30 μg of each sample within a TMTsixplex experiment were mixed 1:1:1:1:1:1. The combined sample was analysed by GeLC-MS/MS with the entire gel lane being excised into 15 sections. […]

[2] = test system: platelet protein biomarkers of aspirin resistance; test: Aspirin resistance biomarker SRM method (six biomarkers); details: two aspirin resistant and 10 aspirin sensitive platelet digests
Source text: The six markers are Integrin beta 3 (total) and Integrin beta 3 isoform A, heat shock protein A5, pyruvate kinase isozyme M1/M2, RAB GDP1 alpha & prostaglandin G/H synthase. For each marker two or three proteotypic tryptic peptides were selected and heavy isotope standard synthetic peptides were purchased from a commercial supplier (Thermo Scientific, Belgium). Platelet preparations from Example 3 were also used in the SRM method for simultaneous measurement of six biomarkers of aspirin resistance. Prior to analysis using Platelet Aspirin Resistance assay version 2.0 samples were resuspended in a solution containing 5 fmol/μL of each of the heavy AQUA peptides (See table 2) in the method and 200 μg/mL glucagon. Prior to SRM samples were resolved by RP-chromatography over a 9 minute ACN gradient (5-30%) in 0.2% formic acid at 100 μl/min. The Platelet Aspirin Resistance assay version 2.0 contains 96 SRM transitions, covering 17 peptides from 5 proteins. The SRM cycle time was 2 seconds with retention time windows used to maximise the scan time given to each SRM transition. Including washes and time to equalibrate the column, the total run time of the method was 30 minutes.

Structure (SMILES): CC(=O)Oc1ccccc1C(=O)O [aspirin, acetylsalicyclic acid]
- integrin beta 3 isoform A level after aspirin (Integrin beta 3; majority of 10 aspirin sensitive patients): remained level or decreased
- total integrin beta 3 levels after aspirin (Integrin beta 3; majority of aspirin sensitive patients): remained relatively unchanged
- integrin beta 3 isoform A level after aspirin (Integrin beta 3; two aspirin resistant patients, 1 month treatment): expected increase
- intensity of staining of integrin beta 3 band, N-terminus antibody [1]: consistent pre- and post-aspirin treatment
- ITGB3 peptide specific for isoform beta 3A, post:pre aspirin (integrin beta 3 (ITGB3); aspirin resistant compared to aspirin sensitive subjects): consistently showed significant changes
- ITGB3 peptides common to all three isoforms, protein levels after treatment (integrin beta 3 (ITGB3); six subjects pre and post aspirin): no difference in protein levels
- levels of vinculin, myosin and talin (platelets; housekeeping proteins used for normalisation): not influenced by aspirin treatment
- peptide/protein expression after aspirin treatment (platelets; platelets from aspirin-resistant subjects): mostly down-regulation of peptide/protein expression
- peptide/protein expression after aspirin treatment (platelets; platelets from aspirin-sensitive individuals): remained broadly similar or increased
- aspirin-dependant expression of integrin beta 3 isoform A, heat shock protein A5, RAB GDP1 alpha, prostaglandin G/H synthase [2]: consistent changes
- aspirin-dependant expression of pyruvate kinase isozyme M1/M2 [2]: more variable
